Reference: article PMC3914206

Target: T1, panel of 442 kinases (Homo sapiens, UniProt O95835)
T1 construct: purchased KINOMEscan
T1 sequence (O95835 1-1130): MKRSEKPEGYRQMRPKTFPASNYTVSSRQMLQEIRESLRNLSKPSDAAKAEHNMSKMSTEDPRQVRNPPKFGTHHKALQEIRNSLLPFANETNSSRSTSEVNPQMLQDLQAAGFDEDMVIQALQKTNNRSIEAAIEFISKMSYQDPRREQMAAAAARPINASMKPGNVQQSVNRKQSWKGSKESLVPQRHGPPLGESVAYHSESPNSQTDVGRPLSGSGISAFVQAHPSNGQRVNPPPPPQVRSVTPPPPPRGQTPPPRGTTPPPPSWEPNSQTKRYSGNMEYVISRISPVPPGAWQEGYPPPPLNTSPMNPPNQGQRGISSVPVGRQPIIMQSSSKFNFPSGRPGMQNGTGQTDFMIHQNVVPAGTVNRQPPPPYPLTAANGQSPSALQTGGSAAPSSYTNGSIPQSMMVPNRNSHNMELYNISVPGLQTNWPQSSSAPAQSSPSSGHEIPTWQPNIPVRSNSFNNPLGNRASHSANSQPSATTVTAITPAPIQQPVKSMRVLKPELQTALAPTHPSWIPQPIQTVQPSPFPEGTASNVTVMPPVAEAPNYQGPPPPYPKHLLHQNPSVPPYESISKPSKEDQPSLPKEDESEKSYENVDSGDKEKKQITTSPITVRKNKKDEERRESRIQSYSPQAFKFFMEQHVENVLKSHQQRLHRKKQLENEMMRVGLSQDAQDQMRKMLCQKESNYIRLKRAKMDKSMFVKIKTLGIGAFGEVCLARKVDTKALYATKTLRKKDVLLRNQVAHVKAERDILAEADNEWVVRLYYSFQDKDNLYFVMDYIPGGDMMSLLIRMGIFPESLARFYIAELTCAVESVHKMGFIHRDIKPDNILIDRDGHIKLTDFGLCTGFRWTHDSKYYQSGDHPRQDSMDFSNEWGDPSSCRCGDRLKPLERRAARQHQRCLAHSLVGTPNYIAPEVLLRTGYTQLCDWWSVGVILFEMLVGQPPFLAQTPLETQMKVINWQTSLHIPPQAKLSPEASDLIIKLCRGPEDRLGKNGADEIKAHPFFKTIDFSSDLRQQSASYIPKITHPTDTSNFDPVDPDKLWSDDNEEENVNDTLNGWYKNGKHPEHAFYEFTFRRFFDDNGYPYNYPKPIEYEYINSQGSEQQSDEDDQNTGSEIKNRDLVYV
Format: binding
Details: Compound Concentration 10 µM
Description: We assessed the selectivity of members of this scaffold using the KINOMEscan methodology across a near comprehensive panel of 442 kinases [[18,27]].

SMILES	KINOMEscan: LATS1
COc1cc(C(=O)N2CCC(N3CCN(C)CC3)CC2)ccc1Nc1ncc2c(n1)N(C)c1ccccc1C(=O)N2C [15 (LRRK2-IN-1)]	100
COc1cc(C(=O)N2CCC(N3CCN(C)CC3)CC2)ccc1Nc1ncc2c(n1)N(C1CCCC1)c1ccccc1C(=O)N2C [Compound 25, 11-cyclopentyl-2-((2-methoxy-4-(4-(4-methylpiperazin-1-yl)piperidine-1-carbonyl)phenyl)amino)-5-methyl-5H-benzo[e]pyrimido[5,4-b][1,4]diazepin-6(11H)-one]	100
CCOc1cc(C(=O)N2CCC(N3CCN(C)CC3)CC2)ccc1Nc1ncc2c(n1)N(C1CCCC1)c1ccccc1C(=O)N2C [Compound 26]	100
